Laboratory results published in US20210023233A1, “ANTIBODY-PEPTIDE COMPLEXES AND USES THEREOF” (priority 2018, published 2021).

Test system: CD20+ Daudi human lymphoma cells
Assay: Toxicity of cisplatin-loaded peptide: Daudi cell proliferation/survival after overnight treatment
Type: cell-based
Details: treated overnight, 100 μg/ml
Protocol: FIG. 4 is a graph plotting the toxicity of cisplatin-loaded peptide. CD20+ Daudi human lymphoma cells were treated overnight with 100 μg/ml ABRAXANE® (ABX), 100 μg/ml cisplatin (CIS), 1 mg/ml rituximab (RIT), 1 mg/ml peptide only (PEP), 100 μg/ml peptide-loaded cisplatin (PEP+CIS), peptide with rituximab (PEP+RIT), or 100 μg/ml peptide-loaded cisplatin with rituximab (PEP+CIS+RIT).
CD20+ Daudi human lymphoma cells were treated overnight with 100 μg/ml ABRAXANE® (ABX), 100 μg/ml cisplatin (CIS), 1 mg/ml rituximab (RIT), 1 mg/ml peptide (SEQ ID NO:2) only (PEP), 100 μg/ml peptide-loaded cisplatin (PEP+CIS), peptide with rituximab (PEP+RIT), or 100 μg/ml peptide-loaded cisplatin with rituximab (PEP+CIS+RIT), and cell survival was assessed (FIG. 4).

Row | Molecule | Toxicity to Daudi cells compared with cisplatin-containing peptide (in words) | Daudi proliferation, % of the total (control) proliferation [%]
1 | N.N.[Cl][Pt][Cl] [cisplatin] | equivalent | –
2 | PEP+CIS (VVLCQLCVLHEKTPVSDR) | – | 80
